Experimental data as given in patent US20100009997A1, “METHOD OF TREATING A METABOLIC OR NEUROPSYCHIARTY DISORDER WITH A BH4 DERIVATIVE PRODRUG” (BIOMARIN PHARMACEUTICAL INC., priority 2007, published 2010).

Experiments:
[1] = set-up: species or system Sprague Dawley rats; conditions: male, Sprague Dawley, rat, in vivo, po, 100 mg/kg
Method: This example allows for comparison of the pharmacokinetics of the BH4 derivative versus that of BH4 following single oral administration in rats.
Single doses of BH4 (10 and 100 mg/kg) were administered orally to a […] of male Sprague Dawley rats (6 weeks old) under fasting conditions. Single doses of Compound I were administered orally to a […] of male Sprague Dawley rats (6 weeks old) under fasting conditions.
With respect to the administered BH4, the maximum total biopterin concentrations in plasma 2 hrs and 1 hr post-dosing were 108 ng/ml (i.e., about 3 fold the endogenous level) and 1227 ng/ml (i.e., about 30 fold the endogenous level), respectively. […] The ratio of reduced biopterin to total biopterins in plasma (i.e., the reduced-form ratio) was relatively static (73%-96%).

[2] = set-up: species or system cynomolgus monkeys; conditions: female, cynomolgus monkey, in vivo, po, 10 mg/kg
Method: The example allows comparison of the pharmacokinetics of sapropterin and the BH4 derivative after a single oral administration in groups of cynomolgus monkeys.
A single dose of sapropterin (10 mg/kg) was administered orally to a first group of female cynomolgus monkeys (3/group) under fasting conditions. A single dose of Compound I (10 mg/kg) was administered orally to second group of female cynomolgus monkeys (3/group) under fasting conditions.
The bioavailability (F) following a 10 mg/kg oral administration to female monkeys was about 9%.

biopterin elimination half-life (t1/2) [1]	bioavailability (F) [2]	plasma elimination half-life of biopterin [2]	SMILES
about 1.1 hr			C[C@H](O)[C@H](O)[C@H]1CNc2nc(N)[nH]c(=O)c2N1 [BH4, (6R)-5,6,7,8-tetrahydro-L-biopterin]
	about 9%	approximately 1.4 hrs	C[C@H](O)[C@H](O)[C@H]1CNc2nc(N)[nH]c(=O)c2N1 [sapropterin]
